This passage reports IC50 results from patent US10800785B2, “Substituted pyrrolo[2,3-d]pyridazin-4-ones and pyrazolo[3,4-d]pyridazin-4-ones as protein kinase inhibitors” (Shanghai Fochon Pharmaceutical Co., Ltd., priority 2016, dated 2020).

The subject of the assay is DOHH2 cells. The assay is described as follows: Cell proliferation assay (MTS) in DOHH2 cells, mechanism-based assay for BTK inhibition. Conditions: Homo sapiens, DOHH-2, 120 h incubation, 5000 cells/well. An excerpt:
Cell Proliferation Assays
MTS testing kit was purchased from Promega. The DMEM, Fetal bovine serum and Penicillin-Streptomycin were purchased from Gibco. Dimethyl sulfoxide (DMSO) was purchased from Sigma.
To investigate whether a compound is able to inhibit the activity of BTK in cells, a mechanism-based assay using DOHH2 (DSMZ catalog#: ACC47) and Mino (ATCC® Number CRL-3000™) cells was developed. In this assay, inhibition of BTK was detected by the inhibition of DOHH2 and Mino cell proliferations. DOHH2 or Mino cells were cultured in culture flasks to 40-80% confluence in RPMI-1640 plus 10% fetal bovine serum. C ells were collected and plated onto 96-well plates at desired cell density (DOHH2: 5000 cells/well; Mino: 10000 cells/well). Plates were incubated overnight at 37° C., with 5% CO2 to adhere. Compounds were added to the plates, and the final compound concentrations were 10000, 3333, 1111, […], 41, 14, 4.6 and 1.5 nM. Plates were placed at 37° C., with 5% CO2 for 120 h (DOHH2) or 72 h (Mino). 20 μl MTS/100 μl medium mixture solution were added to each well and the plates were incubated for exactly 2 hours. The reaction was stopped by adding 25 μl 10% SDS per well.
Select compounds prepared as described above were assayed according to the biological procedures described herein.
As a reminder, the IC50 is the point on the concentration scale where inhibition reaches its midpoint. Lower therefore signals higher potency. `COC/C=C/C(=O)N1CC[C@@H](c2cn(-c3ccc(Oc4ccccc4F)cc3)c3c(N)n[nH]c(=O)c23)C1` [Example 92, (S,E)-amino-1-(4-(2-fluorophenoxy)phenyl)-3-(1-(4-methoxybut-2-enoyl)pyrrolidin-3-yl)-1,5-dihydro-4H-pyrrolo[2,3-d]pyridazin-4-one] returned an IC50 of 649 nM.

`C=CC(=O)N1CCC(c2cn(-c3ccc(Oc4ccccc4)cc3)c3c(N)n[nH]c(=O)c23)C1` (stereo not drawn) [Example 1, 3-(1-acryloylpyrrolidin-3-yl)-7-amino-1-(4-phenoxyphenyl)-1,5-dihydro-4H-pyrrolo[2,3-d]pyridazin-4-one] yielded an IC50 of 36 nM. For `CN1CC[C@@H]1/C=C/C(=O)N1CCC[C@@H](c2cn(-c3ccc(Oc4ccccc4)cc3)c3c(N)n[nH]c(=O)c23)C1` [Example 107, 7-amino-3-((S)-1-((E)-3-((R)-1-methylazetidin-2-yl)acryloyl)piperidin-3-yl)-1-(4-phenoxyphenyl)-1,5-dihydro-4H-pyrrolo[2,3-d]pyridazin-4-one], the IC50 stood at 737 nM. `C=CC(=O)N1CCC[C@@H](c2cn(-c3ccc(Oc4c(F)cccc4F)cc3)c3c(N)n[nH]c(=O)c23)C1` [Example 33, (S)-3-(1-acryloylpiperidin-3-yl)-7-amino-1-(4-(2,6-difluorophenoxy)phenyl)-1,5-dihydro-4H-pyrrolo[2,3-d]pyridazin-4-one] returned an IC50 of 221 nM. This IC50 lies about 3.3-fold lower than the previous one. Take `C=CC(=O)N1CCC(c2nn(-c3ccc(Oc4ccccc4)cc3)c3c(N)n[nH]c(=O)c23)C1` (stereo not drawn) [Example 5, 3-(1-acryloylpyrrolidin-3-yl)-7-amino-1-(4-phenoxyphenyl)-1,5-dihydro-4H-pyrazolo[3,4-d]pyridazin-4-one]: the IC50 came to 25 nM. As for `CCN1CC[C@@H]1/C=C/C(=O)N1CCC[C@@H](c2cn(-c3ccc(Oc4ccccc4F)cc3)c3c(N)n[nH]c(=O)c23)C1` [Example 110, 7-amino-3-((S)-1-((E)-3-((R)-1-ethylazetidin-2-yl)acryloyl)piperidin-3-yl)-1-(4-(2-fluorophenoxy)phenyl)-1,5-dihydro-4H-pyrrolo[2,3-d]pyridazin-4-one], the IC50 came to 123 nM. This IC50 lies about 4.9-fold higher than the previous one. The figure for `CC#CC(=O)N1CCC(c2nn(-c3ccc(Oc4ccccc4)cc3)c3c(N)n[nH]c(=O)c23)C1` (stereo not drawn) [Example 6, 7-amino-3-(1-(but-2-ynoyl)pyrrolidin-3-yl)-1-(4-phenoxyphenyl)-1,5-dihydro-4H-pyrazolo[3,4-d]pyridazin-4-one] is 179 nM; for `COC/C=C/C(=O)N1CC[C@@H](c2cn(-c3ccc(Oc4ccccc4)cc3)c3c(N)n[nH]c(=O)c23)C1` [Example 91, (S,E)-7-amino-3-(1-(4-methoxybut-2-enoyl)pyrrolidin-3-yl)-1-(4-phenoxyphenyl)-1,5-dihydro-4H-pyrrolo[2,3-d]pyridazin-4-one] it is 640 nM; for `C=CC(=O)N1CC[C@H](c2nn(-c3ccc(Oc4cccc(F)c4F)cc3)c3c(N)n[nH]c(=O)c23)C1` [Example 50, (S)-3-(1-acryloylpyrrolidin-3-yl)-7-amino-1-(4-(2,3-difluorophenoxy)phenyl)-1,5-dihydro-4H-pyrazolo[3,4-d]pyridazin-4-one] it is 678 nM. The figure for `CC#CC(=O)N1CCC(c2nn(-c3ccc(Oc4c(F)cccc4F)cc3)c3c(N)n[nH]c(=O)c23)C1` (stereo not drawn) [Example 8, 7-amino-3-(1-(but-2-ynoyl)pyrrolidin-3-yl)-1-(4-(2,6-difluorophenoxy)phenyl)-1,5-dihydro-4H-pyrazolo[3,4-d]pyridazin-4-one] is 304 nM.

Regarding `Nc1n[nH]c(=O)c2c([C@@H]3CCN(C(=O)/C=C/[C@H]4CCN4)C3)cn(-c3ccc(Oc4ccccc4)cc3)c12` [Example 97, 7-amino-3-((S)-1-((E)-3-((R)-azetidin-2-yl)acryloyl)pyrrolidin-3-yl)-1-(4-phenoxyphenyl)-1,5-dihydro-4H-pyrrolo[2,3-d]pyridazin-4-one], it took 701 nM to reach half-maximal inhibition (IC50). The same measure for `C=CC(=O)N1CC[C@H](c2cn(-c3ccc(Oc4ccccc4)cc3)c3c(N)n[nH]c(=O)c23)C1` [Example 10, (R)-3-(1-acryloylpyrrolidin-3-yl)-7-amino-1-(4-phenoxyphenyl)-1,5-dihydro-4H-pyrrolo[2,3-d]pyridazin-4-one]: 20 nM; for `C=CC(=O)N1CC[C@H](c2nn(-c3ccc(Oc4cc(F)cc(F)c4)cc3)c3c(N)n[nH]c(=O)c23)C1` [Example 52, (S)-3-(1-acryloylpyrrolidin-3-yl)-7-amino-1-(4-(3,5-difluorophenoxy)phenyl)-1,5-dihydro-4H-pyrazolo[3,4-d]pyridazin-4-one]: 321 nM. The same measure for `CC#CC(=O)N1CC[C@H](c2cn(-c3ccc(Oc4ccccc4)cc3)c3c(N)n[nH]c(=O)c23)C1` [Example 68, (R)-7-amino-3-(1-(but-2-ynoyl)pyrrolidin-3-yl)-1-(4-phenoxyphenyl)-1,5-dihydro-4H-pyrrolo [2,3-d]pyridazin-4-one]: 146 nM; for `CC#CC(=O)N1CC[C@@H](c2nn(-c3ccc(Oc4ccccc4F)cc3)c3c(N)n[nH]c(=O)c23)C1` [Example 73, (R)-7-amino-3-(1-(but-2-ynoyl)pyrrolidin-3-yl)-1-(4-(2-fluorophenoxy)phenyl)-1,5-dihydro-4H-pyrazolo[3,4-d]pyridazin-4-one]: 440 nM; for `CC#CC(=O)N1CCC[C@@H](c2cn(-c3ccc(Oc4ccccc4F)cc3)c3c(N)n[nH]c(=O)c23)C1` [Example 79, (S)-7-amino-3-(1-(but-2-ynoyl)piperidin-3-yl)-1-(4-(2-fluorophenoxy)phenyl)-1,5-dihydro-4H-pyrrolo[2,3-d]pyridazin-4-one]: 164 nM. The same measure for `COC/C=C/C(=O)N1CCC[C@@H](c2cn(-c3ccc(Oc4ccccc4F)cc3)c3c(N)n[nH]c(=O)c23)C1` [Example 102, (S,E)-7-amino-1-(4-(2-fluorophenoxy)phenyl)-3-(1-(4-methoxybut-2-enoyl)piperidin-3-yl)-1,5-dihydro-4H-pyrrolo[2,3-d]pyridazin-4-one]: 319 nM. For the compound `C=CC(=O)N1CC[C@H](c2cn(-c3ccc(Oc4cccc(F)c4)cc3)c3c(N)n[nH]c(=O)c23)C1` [Example 24, (R)-3-(1-acryloylpyrrolidin-3-yl)-7-amino-1-(4-(3-fluorophenoxy)phenyl)-1,5-dihydro-4H-pyrrolo[2,3-d]pyridazin-4-one], the IC50 was determined as 373 nM. The same measure for `CC#CC(=O)N1CCC[C@@H](c2nn(-c3ccc(Oc4ccccc4F)cc3)c3c(N)n[nH]c(=O)c23)C1` [Example 77, (R)-7-amino-3-(1-(but-2-ynoyl)piperidin-3-yl)-1-(4-(2-fluorophenoxy)phenyl)-1,5-dihydro-4H-pyrazolo[3,4-d]pyridazin-4-one]: 666 nM; for `C=CC(=O)N1CCC[C@@H](c2nn(-c3ccc(Oc4c(F)cccc4F)cc3)c3c(N)n[nH]c(=O)c23)C1` [Example 57, (R)-3-(1-acryloylpiperidin-3-yl)-7-amino-1-(4-(2,6-difluorophenoxy)phenyl)-1,5-dihydro-4H-pyrazolo[3,4-d]pyridazin-4-one]: 76 nM; for `C=CC(=O)N1CC[C@@H](c2cn(-c3ccc(Oc4ccccc4)cc3)c3c(N)n[nH]c(=O)c23)C1` [Example 9, (S)-3-(1-acryloylpyrrolidin-3-yl)-7-amino-1-(4-phenoxyphenyl)-1,5-dihydro-4H-pyrrolo[2,3-d]pyridazin-4-one]: 32 nM. The figure for `C=CC(=O)N1CCC[C@H](c2cn(-c3ccc(Oc4cccc(F)c4)cc3)c3c(N)n[nH]c(=O)c23)C1` [Example 36, (R)-3-(1-acryloylpiperidin-3-yl)-7-amino-1-(4-(3-fluorophenoxy)phenyl)-1,5-dihydro-4H-pyrrolo [2,3-d]pyridazin-4-one] is 585 nM; for `C=CC(=O)N1CCC[C@H](c2nn(-c3ccc(Oc4cccc(F)c4F)cc3)c3c(N)n[nH]c(=O)c23)C1` [Example 62, (S)-3-(1-acryloylpiperidin-3-yl)-7-amino-1-(4-(2,3-difluorophenoxy)phenyl)-1,5-dihydro-4H-pyrazolo[3,4-d]pyridazin-4-one] it is 147 nM; for `CC#CC(=O)N1CCC[C@@H](c2cn(-c3ccc(Oc4c(F)cccc4F)cc3)c3c(N)n[nH]c(=O)c23)C1` [Example 87, (S)-7-amino-3-(1-(but-2-ynoyl)piperidin-3-yl)-1-(4-(2,6-difluorophenoxy)phenyl)-1,5-dihydro-4H-pyrrolo[2,3-d]pyridazin-4-one] it is 265 nM. `C=CC(=O)N1CC[C@@H](c2nn(-c3ccc(Oc4cccc(F)c4F)cc3)c3c(N)n[nH]c(=O)c23)C1` [Example 44, (R)-3-(1-acryloylpyrrolidin-3-yl)-7-amino-1-(4-(2,3-difluorophenoxy)phenyl)-1,5-dihydro-4H-pyrazolo[3,4-d]pyridazin-4-one] yielded an IC50 of 113 nM.

The compound `C=CC(=O)N1CCC[C@@H](c2cn(-c3ccc(Oc4cccc(F)c4)cc3)c3c(N)n[nH]c(=O)c23)C1` [Example 30, (S)-3-(1-acryloylpiperidin-3-yl)-7-amino-1-(4-(3-fluorophenoxy)phenyl)-1,5-dihydro-4H-pyrrolo [2,3-d]pyridazin-4-one] gave an IC50 of 129 nM. For `C=CC(=O)N1CCC[C@@H](c2cn(-c3ccc(Oc4ccccc4)cc3)c3c(N)n[nH]c(=O)c23)C1` [Example 11, (S)-3-(1-acryloylpiperidin-3-yl)-7-amino-1-(4-phenoxyphenyl)-1,5-dihydro-4H-pyrrolo[2,3-d]pyridazin-4-one], the IC50 was 40 nM.
